Active and inactive are the calls of the source. The calls are words filed in the database; no cut-off is given here.
Columns and labels:
[1] = system: Bel-7402; assay: Cell cycle arrest in human Bel7402 cells assessed as accumulation at G2/M phase at 10 uM relative to control; format: functional, cell-based
[2] = molecular target: Histone deacetylase 3 (Homo sapiens, UniProt O15379); assay: Inhibition of human recombinant HDAC3 expressed in High5 insect cells using Ac-Lys-Tyr-Lys(-acetyl)-AMC as substrate after 24 hrs by fluorescence assay
[3] = molecular target: Histone deacetylase 1 (Homo sapiens, UniProt Q13547); assay: Inhibition of human recombinant HDAC1 expressed in High5 insect cells using Ac-Lys-Tyr-Lys(-acetyl)-AMC as substrate after 24 hrs by fluorescence assay
[4] = system: A549; assay: Cytotoxicity against human A549 cells after 72 hrs by MTT assay; format: functional, cell-based; conditions: A549, 72 h
[5] = molecular target: T1, Protein deacetylase HDAC6 (Homo sapiens, UniProt Q9UBN7); assay: Inhibition of human recombinant HDAC6 expressed in High5 insect cells using Boc-Lys (-acetyl)-AM) as substrate after 24 hrs by fluorescence assay
T1 sequence (Q9UBN7 whole entry): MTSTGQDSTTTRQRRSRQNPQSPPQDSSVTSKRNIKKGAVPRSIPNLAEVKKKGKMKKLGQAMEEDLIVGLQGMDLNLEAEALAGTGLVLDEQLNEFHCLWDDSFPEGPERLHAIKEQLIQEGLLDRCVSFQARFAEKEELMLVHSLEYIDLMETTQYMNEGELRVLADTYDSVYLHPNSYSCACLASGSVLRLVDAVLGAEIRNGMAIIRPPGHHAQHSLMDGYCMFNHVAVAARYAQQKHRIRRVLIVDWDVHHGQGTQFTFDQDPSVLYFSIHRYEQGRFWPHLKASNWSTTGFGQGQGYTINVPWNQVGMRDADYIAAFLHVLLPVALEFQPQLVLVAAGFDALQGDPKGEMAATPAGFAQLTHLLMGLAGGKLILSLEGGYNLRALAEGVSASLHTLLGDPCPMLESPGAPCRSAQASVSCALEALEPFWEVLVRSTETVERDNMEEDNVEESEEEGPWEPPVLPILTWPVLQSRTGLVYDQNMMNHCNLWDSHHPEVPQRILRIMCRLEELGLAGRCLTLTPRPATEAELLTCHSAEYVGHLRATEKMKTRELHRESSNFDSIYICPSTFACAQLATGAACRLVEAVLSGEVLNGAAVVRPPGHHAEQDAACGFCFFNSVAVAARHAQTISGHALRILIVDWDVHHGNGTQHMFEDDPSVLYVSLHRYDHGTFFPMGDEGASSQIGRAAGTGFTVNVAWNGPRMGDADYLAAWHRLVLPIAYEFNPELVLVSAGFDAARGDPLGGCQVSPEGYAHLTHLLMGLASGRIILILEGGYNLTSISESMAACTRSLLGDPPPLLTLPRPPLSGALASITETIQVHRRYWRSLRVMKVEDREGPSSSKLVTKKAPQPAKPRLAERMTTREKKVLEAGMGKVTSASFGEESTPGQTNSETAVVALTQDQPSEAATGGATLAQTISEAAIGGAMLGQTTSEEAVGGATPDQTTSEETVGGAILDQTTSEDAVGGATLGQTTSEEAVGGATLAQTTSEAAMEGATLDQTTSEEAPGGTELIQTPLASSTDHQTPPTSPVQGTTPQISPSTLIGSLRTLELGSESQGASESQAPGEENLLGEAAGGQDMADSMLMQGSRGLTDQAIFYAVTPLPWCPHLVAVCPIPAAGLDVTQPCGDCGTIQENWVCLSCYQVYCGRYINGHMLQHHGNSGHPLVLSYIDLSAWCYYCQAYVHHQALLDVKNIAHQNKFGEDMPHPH

[6] = system: PC-3; assay: Cytotoxicity against human PC3 cells after 72 hrs by MTT assay; format: functional, cell-based; conditions: PC-3, 72 h
[7] = system: MCF7; assay: Cytotoxicity against human MCF7 cells after 72 hrs by MTT assay; format: functional, cell-based; conditions: MCF7, 72 h
[8] = system: A-431; assay: Cytotoxicity against human A431 cells after 72 hrs by MTT assay; format: functional, cell-based; conditions: A-431, 72 h
[9] = system: HCT-116; assay: Cytotoxicity against human HCT116 cells after 72 hrs by MTT assay; format: functional, cell-based; conditions: HCT-116, 72 h
[10] = system: Bel-7402; assay: Cell cycle arrest in human Bel7402 cells assessed as accumulation at G2/M phase at 1 uM relative to control; format: functional, cell-based

Histone deacetylase 1, sequence (Q13547 whole entry): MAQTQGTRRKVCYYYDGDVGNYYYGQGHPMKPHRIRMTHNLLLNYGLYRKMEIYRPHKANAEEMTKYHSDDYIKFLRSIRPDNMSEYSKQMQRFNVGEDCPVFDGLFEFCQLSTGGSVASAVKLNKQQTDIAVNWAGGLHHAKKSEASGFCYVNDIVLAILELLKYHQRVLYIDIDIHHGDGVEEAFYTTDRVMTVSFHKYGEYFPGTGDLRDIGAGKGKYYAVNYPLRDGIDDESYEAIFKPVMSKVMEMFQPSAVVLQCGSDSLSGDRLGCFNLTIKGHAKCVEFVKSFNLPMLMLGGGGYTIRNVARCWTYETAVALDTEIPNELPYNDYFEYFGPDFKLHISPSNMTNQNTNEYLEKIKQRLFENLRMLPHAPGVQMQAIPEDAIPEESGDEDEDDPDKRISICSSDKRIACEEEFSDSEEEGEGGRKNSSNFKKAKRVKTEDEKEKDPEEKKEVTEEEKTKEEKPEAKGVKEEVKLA
Histone deacetylase 3, sequence (O15379 whole entry): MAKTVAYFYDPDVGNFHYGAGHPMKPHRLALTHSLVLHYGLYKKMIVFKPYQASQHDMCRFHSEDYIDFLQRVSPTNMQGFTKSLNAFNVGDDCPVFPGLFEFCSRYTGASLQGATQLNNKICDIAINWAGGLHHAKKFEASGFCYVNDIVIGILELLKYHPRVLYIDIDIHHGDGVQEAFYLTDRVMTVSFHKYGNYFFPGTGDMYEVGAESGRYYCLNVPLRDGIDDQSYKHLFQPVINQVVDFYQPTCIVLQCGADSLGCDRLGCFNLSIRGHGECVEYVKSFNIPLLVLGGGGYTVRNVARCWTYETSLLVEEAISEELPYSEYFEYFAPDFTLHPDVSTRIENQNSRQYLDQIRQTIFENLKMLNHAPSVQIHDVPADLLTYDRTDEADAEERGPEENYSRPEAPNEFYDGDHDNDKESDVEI

| SMILES | Activity [1] | IC50 [2] [nM] | IC50 [3] [nM] | IC50 [4] [µM] | IC50 [5] [µM] | IC50 [6] [nM] | IC50 [7] [nM] | IC50 [8] [nM] | IC50 [9] [nM] | Activity [10] |
| --- | --- | --- | --- | --- | --- | --- | --- | --- | --- | --- |
| COc1cc2c(c(OC)c1OC)-c1ccc(OC)c(=O)cc1[C@@H](NC(=O)CCC(=O)NO)CC2 | Active | 1360 | 1330 | 4.67 | 3.43 | 813 | 825 | 242 | 903 | Active |
| COc1cc2c(c(OC)c1OC)-c1ccc(OC)c(=O)cc1[C@@H](NC(=O)CCCCCC(=O)NO)CC2 | Active | 1030 | 1600 | 7.29 | 0.76 | 2940 | 948 | 1230 | 1380 | Active |
| COc1cc2c(c(OC)c1OC)-c1ccc(OC)c(=O)cc1[C@@H](NC(=O)CCCCC(=O)NO)CC2 | Active | 830 | 720 | 4.93 | 0.44 | 5400 | 928 | 1030 | 2080 | Active |
| COc1cc2c(c(OC)c1OC)-c1ccc(OC)c(=O)cc1[C@@H](NC(=O)CCCC(=O)NO)CC2 | Active | 8360 | 9580 | 7.37 | 8.24 | 2340 | 876 | 1830 | 2740 | Active |
| COc1cc2c(c(OC)c1OC)-c1ccc(OC)c(=O)cc1[C@@H](NC(C)=O)CC2 [COLCHICINE] | – | – | – | 0.023 | – | 74 | 17 | 19 | 37 | – |
| COc1cc2c(c(OC)c1OC)-c1ccc(OC)c(=O)cc1[C@@H](NC(=O)CCCCCCC(=O)NO)CC2 | Active | – | – | 7.26 | 9.83 | 3380 | 1380 | 3430 | 2600 | Active |

From ChEMBL document CHEMBL2385041, “The discovery of colchicine-SAHA hybrids as a new class of antitumor agents” (Bioorg Med Chem, 2013)
